The values that follow are results of earlier work, collected in patent US12133912B2, “Stable pharmaceutical compositions of succinylcholine chloride” (Slayback Pharma LLC., priority 2021, dated 2024).

In data set [1] the target is T1, cholinergic receptors of the motor end plate (Homo sapiens, UniProt P02708+Q04844+Q07001).
T1 construct: Succinylcholine combines with the cholinergic receptors of the motor end plate to produce depolarization; from tissue; host or cells: motor end plate of skeletal muscle, in vivo after intravenous administration
T1 sequence (P02708 21-457): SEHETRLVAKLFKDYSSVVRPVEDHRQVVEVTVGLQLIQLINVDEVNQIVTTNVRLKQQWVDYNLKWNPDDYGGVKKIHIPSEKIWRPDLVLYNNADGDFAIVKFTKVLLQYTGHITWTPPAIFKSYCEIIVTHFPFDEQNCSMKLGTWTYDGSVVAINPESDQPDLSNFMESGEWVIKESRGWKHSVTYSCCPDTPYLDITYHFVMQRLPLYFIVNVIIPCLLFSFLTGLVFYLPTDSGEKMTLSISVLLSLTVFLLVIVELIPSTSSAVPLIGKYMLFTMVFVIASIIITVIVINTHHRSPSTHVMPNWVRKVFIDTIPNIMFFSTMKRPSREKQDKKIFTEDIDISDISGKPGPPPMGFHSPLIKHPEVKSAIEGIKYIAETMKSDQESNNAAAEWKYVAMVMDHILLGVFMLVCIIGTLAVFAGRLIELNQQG
T1 sequence (Q07001 22-517): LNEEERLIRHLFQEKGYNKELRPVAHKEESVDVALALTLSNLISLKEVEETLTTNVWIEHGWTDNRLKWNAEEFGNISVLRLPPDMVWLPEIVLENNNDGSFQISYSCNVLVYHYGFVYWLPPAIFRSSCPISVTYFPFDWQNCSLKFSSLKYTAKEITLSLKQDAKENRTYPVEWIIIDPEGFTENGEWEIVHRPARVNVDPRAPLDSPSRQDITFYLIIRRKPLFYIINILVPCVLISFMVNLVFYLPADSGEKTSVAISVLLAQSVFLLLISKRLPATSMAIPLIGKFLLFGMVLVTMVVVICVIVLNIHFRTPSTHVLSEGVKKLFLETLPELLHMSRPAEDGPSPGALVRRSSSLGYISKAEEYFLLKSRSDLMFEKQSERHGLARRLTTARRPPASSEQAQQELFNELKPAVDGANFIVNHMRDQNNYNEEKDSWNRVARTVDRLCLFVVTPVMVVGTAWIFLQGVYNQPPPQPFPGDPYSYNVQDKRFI
T1 sequence (Q04844 21-493): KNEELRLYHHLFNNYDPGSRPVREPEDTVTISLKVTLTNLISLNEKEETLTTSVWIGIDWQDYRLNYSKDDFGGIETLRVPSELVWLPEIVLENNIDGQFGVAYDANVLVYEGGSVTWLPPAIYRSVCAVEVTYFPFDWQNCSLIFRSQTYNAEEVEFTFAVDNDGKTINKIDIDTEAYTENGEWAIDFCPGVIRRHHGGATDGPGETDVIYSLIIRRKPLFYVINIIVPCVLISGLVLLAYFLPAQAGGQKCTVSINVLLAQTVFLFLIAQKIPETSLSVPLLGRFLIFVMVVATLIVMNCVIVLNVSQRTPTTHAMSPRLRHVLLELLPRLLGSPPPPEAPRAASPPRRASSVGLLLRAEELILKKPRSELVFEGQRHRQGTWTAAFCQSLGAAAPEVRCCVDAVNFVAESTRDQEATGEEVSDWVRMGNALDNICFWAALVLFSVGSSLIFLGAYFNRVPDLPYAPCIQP
T1 sequence (P11230 24-501 partner): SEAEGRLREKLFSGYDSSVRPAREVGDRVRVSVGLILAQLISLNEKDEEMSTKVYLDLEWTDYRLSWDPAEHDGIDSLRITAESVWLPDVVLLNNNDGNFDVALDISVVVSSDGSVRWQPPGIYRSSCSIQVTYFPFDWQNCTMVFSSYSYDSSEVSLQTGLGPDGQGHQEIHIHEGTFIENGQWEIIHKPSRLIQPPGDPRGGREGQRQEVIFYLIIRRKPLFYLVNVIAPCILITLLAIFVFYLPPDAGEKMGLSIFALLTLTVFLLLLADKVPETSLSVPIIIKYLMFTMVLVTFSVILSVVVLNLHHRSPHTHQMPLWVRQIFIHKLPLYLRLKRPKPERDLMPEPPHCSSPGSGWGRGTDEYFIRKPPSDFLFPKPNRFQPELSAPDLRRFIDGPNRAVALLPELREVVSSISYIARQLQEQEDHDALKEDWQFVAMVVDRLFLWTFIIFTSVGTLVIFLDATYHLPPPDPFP
Conditions: after intravenous administration.

For the compound `C[N+](C)(C)CCOC(=O)CCC(=O)OCC[N+](C)(C)C` [Succinylcholine chloride, 2,2′-[(1,4-dioxo-1,4-butanediyl)bis(oxy)]bis[N,N,Ntrimethylethanaminium] dichloride], the “Onset of flaccid paralysis” value in data set [1] was “less than one”. For the same compound, the Solubility in alcohol result (alcohol) is reported as “slightly soluble”. Further, the Solubility in ether entry (ether) was “practically insoluble”. Under “water”, the Solubility in water entry was “freely soluble”.
